# Laboratory results published in paper PMC9230136 (Pharmaceutics, 2022).
# Assays:
# Assay type in all cases: cell-based, human
# HeLa cells [1] = assay: Mitochondrial membrane potential (JC-1); settings: Figure 8A representative plot; concentration not given
# Experimental: The mitochondrial potential was evaluated in HeLa cells by flow cytometry using the cell membrane permeable cationic dye 5,5′,6,6′-tetrachloro-1,1′,3,3′-tetraethyl-imidacarbocyanine iodide (JC-1) (Molecular Probes) as described previously. The production of ROS was measured in HeLa cells by flow cytometry using 2′,7′-dichlorodihydrofluorescein diacetate (H2DCFDA) (Molecular Probes) as described previously.
# [2] = system: A549, MDA-MB-231, HeLa, HT-29 and Jurkat cancer cell lines; assay: Antiproliferative activity over the panel of cancer cell lines; settings: mean over the five cancer cell lines; read-out: mean IC50 (antiproliferative activity)
# Outline: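 HT-29 cells were cultured in RPMI-1640, while MDA-MB-231, A549 and HeLa were cultured in DMEM, both with 10% FBS. Cells were treated 24 h after seeding with 5-fold serial dilutions starting at 10 μM, in triplicate, and incubated for 72 h at 37 °C. Resazurin fluorescence was read at ex 535/em 600 nm.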
# HeLa cells [3] = assay: Scratch-migration assay; settings: 0.625–10 nM; 24 and 48 h
# Experimental: HeLa cells were plated at 100,000 cells per well in a 6-well plate and incubated at 37 °C for 24 h. The day after seeding, cells were nearly confluent, so the sheet of cells was gently wounded through the horizontal and vertical axes using a micropipette tip. Cells were rinsed twice with PBS solution to remove cell debris; next, they were treated with different sublethal concentrations of compound 8q. At different time points, four images per experimental condition were captured using a stereomicroscope at 10X magnification. The distance between the two edges of the wound area was quantified with ImageJ software.
# HeLa cells [4] = assay: EdU cell proliferation assay; settings: 25 or 50 nM; 24 h
# Experimental: HeLa cells were seeded in a 6-well plate and, after a 24 h incubation, were treated with the desired compounds as indicated in the Biological Results and Discussion section. Cells were re-incubated for one day and then labeled with EdU (10 μM) for 3 h under cell culture conditions. Cells were harvested by centrifugation before proceeding with the fixation step using 3.7% formaldehyde. Next, permeabilization with 0.5% Triton X-100 was performed. The reaction cocktail was prepared and added to each well (100 μL/well) following the manufacturer’s instructions (EdU-Click 488, base click, Sigma-Aldrich. Milano Italy), and the plate was incubated at room temperature for 30 min in the dark. Cells were washed 2 times with phosphate-buffered saline (PBS) before reading samples with a Beckman Coulter Cytomics FC500 instrument (λex/λem = 496/516 nm).
# HeLa cells [5] = assay: Apoptosis by annexin-V-FITC/PI flow cytometry
# Experimental: Surface exposure of phosphatidylserine on apoptotic cells was measured by flow cytometry with a Beckman Coulter Cytomics FC500 (Beckman Coulter Italia, Milano, Italy) by adding annexin-V conjugated to fluorescein isothiocyanate (FITC) to cells according to the manufacturer’s instructions (Annexin-V Fluos, Roche Diagnostic, Monza, Italy). Simultaneously, the cells were stained with PI. Excitation was set at 488 nm, and the emission filters were at 525 and 585 nm, respectively, for FITC and PI.
# HeLa = assay: Antiproliferative assay (resazurin, 72 h); settings: Table 2, mean ± SE
# Outline: (§1)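 HT-29 grown in RPMI-1640, A549, HeLa and MDA-MB-231 in DMEM, both with 10% FBS. Seeded cells treated after 24 h with 5-fold serial dilutions from 10 μM, in triplicate, for 72 h at 37 °C. Viability read by resazurin fluorescence (ex 535/em 600 nm) after 3–4 h.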
# MDA-MB-231 = assay: Antiproliferative assay (resazurin, 72 h); settings: Table 2; mean ± SE; 72 h
# Outline: as §1
# A549 = assay: Antiproliferative assay (resazurin, 72 h); settings: Table 2, mean ± SE
# Outline: as §1
# Jurkat = assay: Antiproliferative assay (resazurin, 72 h); settings: Table 2; mean ± SE; 72 h
# Outline: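 Compounds dissolved in DMSO as 10 mM stocks were applied to seeded Jurkat cells using 5-fold serial dilutions from 10 μM, with each condition run in triplicate. Following 72 h incubation, 10 μL of 100 μg/mL resazurin was added for 3–4 h, and fluorescence was measured at 535 nm excitation and 600 nm emission.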
# HT-29 = assay: Antiproliferative assay (resazurin, 72 h); settings: Table 2; mean ± SE; 72 h
# Outline: as §1
compound,measurement,setting,value
Cc1cc(Nc2ccc(F)cc2)n2nc(NCCCc3ccccc3)nc2n1 [Compound 8q],Monomers (%) (monomeric JC-1),HeLa cells [1],64.4%
same,IC50,[2],83 nM
same,cell migration / wound closure,HeLa cells [3],"significantly arrested the movement of cells, preventing wound closure"
same,EdU incorporation / cell proliferation,HeLa cells [4],effective in reducing HeLa cell proliferation
same,concentration from which apoptosis was induced,HeLa cells [5],50 nM
same,IC50,HeLa,29 nM
same,IC50,MDA-MB-231,62 ± 30 nM
same,IC50,A549,130 ± 90 nM
same,IC50,Jurkat,150 ± 20 nM
same,IC50,HT-29,49 ± 10 nM
